Paper PMC6501426 (Clinical Epigenetics, 2019)

Columns and labels:
[1] = target: T1, human C-terminal DNMT3A (Homo sapiens, UniProt Q9Y6K1); test: DNMT3A restriction-based fluorescence assay; format: biochemical; conditions: fluorescent assay; C-terminal catalytic domain; read-out: EC50 ± SD, hDNMT3A
T1 construct: the C-terminal catalytic domain of human DNMT3A (hDNMT3A)
Procedure: DNMT3A enzyme inhibition was adapted from the restriction-based fluorescence assay protocol described in Ceccaldi et al.. Briefly, it is performed in a 384-well microplate in a total volume of 50 μL. An oligonucleotide labeled at the 5′ end with biotin is hybridized to his complementary strand labeled at the 3′ end with 6-carboxyfluorescein. The DNA duplex thus formed contains only one single CpG site overlapping with a restriction site of a methylation sensitive restriction enzyme. The duplex is transferred in the wells coated with avidin. Thus, the duplex is fixed to the plate. The methylation reaction is performed by adding human C-terminal DNMT3A at the final concentration of 4 ng/μL in a total volume of 50 μL in the presence of the chemical compound to be tested at the desired concentration and the cofactor SAM at the final concentration of 20 μM. After incubation (1 h at 37 °C), the plate is washed and the methylation sensitive restriction enzyme HpyCH4IV is added. After 1-h incubation at 37 °C, the plate is washed and the fluorescence measured with a PerkinElmer Envision Multilabel Plate Reader (PerkinElmer, Villebon-sur-Yvette, France). The data are expressed as a percentage of inhibition vs. log concentration (M). Data are normalized referring to the “restriction control” (wells coated with labeled duplex not treated nor exposed to DNMT3A, but only cleaved by HpyCH4IV) as the maximum of inhibition (100%) and to the “DMSO control” (wells coated with labeled duplex but treated just with 0.1% DMSO exposed to DNMT3A and then to HpyCH4IV) as the minimum of inhibition (0%; total methylation).

[2] = target: T2, human DNMT1 (Homo sapiens, UniProt P26358); test: DNMT1 assay (radiolabeled SAM, Flashplate); format: biochemical; conditions: radioactivity assay; at least two independent experiments; read-out: EC50 ± SD, hDNMT1
T2 construct: His; made in house
T2 sequence (P26358 whole entry): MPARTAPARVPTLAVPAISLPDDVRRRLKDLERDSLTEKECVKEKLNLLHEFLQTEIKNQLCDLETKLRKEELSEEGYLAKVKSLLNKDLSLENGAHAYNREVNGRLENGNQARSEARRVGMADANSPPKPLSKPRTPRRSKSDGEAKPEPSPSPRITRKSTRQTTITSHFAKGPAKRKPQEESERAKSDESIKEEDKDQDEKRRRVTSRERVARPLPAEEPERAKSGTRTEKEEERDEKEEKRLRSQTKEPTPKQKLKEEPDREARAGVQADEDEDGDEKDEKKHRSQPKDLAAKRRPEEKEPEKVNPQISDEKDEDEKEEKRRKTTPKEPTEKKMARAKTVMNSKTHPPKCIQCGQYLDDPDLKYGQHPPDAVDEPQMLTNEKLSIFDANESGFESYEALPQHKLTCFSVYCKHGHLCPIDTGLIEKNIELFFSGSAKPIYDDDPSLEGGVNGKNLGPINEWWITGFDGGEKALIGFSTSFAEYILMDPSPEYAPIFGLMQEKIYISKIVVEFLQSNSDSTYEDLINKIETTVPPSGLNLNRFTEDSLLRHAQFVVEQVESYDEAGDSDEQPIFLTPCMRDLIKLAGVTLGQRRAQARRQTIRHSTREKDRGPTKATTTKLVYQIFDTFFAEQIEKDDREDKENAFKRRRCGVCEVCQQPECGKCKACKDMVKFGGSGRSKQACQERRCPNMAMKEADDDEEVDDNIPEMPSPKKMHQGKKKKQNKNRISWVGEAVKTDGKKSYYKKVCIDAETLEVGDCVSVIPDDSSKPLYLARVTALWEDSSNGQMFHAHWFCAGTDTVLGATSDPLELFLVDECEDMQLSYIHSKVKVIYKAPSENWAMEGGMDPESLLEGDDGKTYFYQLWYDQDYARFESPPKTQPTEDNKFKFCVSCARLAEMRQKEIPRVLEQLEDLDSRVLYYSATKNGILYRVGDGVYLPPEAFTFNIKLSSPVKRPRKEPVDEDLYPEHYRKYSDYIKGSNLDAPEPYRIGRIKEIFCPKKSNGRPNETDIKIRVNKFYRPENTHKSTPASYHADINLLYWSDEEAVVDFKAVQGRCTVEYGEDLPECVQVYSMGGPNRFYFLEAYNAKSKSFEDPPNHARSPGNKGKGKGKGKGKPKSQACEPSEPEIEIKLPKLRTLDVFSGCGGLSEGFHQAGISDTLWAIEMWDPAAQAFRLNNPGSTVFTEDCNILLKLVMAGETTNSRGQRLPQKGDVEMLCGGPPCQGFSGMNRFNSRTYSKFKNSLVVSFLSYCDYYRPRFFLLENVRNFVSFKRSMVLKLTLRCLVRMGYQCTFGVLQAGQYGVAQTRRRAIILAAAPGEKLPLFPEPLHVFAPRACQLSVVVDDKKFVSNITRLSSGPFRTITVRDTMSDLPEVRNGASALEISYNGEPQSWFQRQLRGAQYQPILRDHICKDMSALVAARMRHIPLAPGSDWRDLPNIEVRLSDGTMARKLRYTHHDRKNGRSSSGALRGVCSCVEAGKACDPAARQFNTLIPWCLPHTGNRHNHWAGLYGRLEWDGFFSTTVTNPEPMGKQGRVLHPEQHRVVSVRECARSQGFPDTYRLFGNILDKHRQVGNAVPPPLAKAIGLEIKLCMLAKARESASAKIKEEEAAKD
Procedure: His-DNMT1 (182 kDa, human) was cloned, expressed, and purified as described by Lee et al.. The DNMT1 assay was performed according to Gros et al.. Briefly, the DNMT1 enzymatic assay is based on the use of radiolabeled SAM, and the methylation occurs in homogeneous phase in 384-well microplates. The reaction is performed with DNMT1 at the final concentration of 90 nM in a total volume of 10 μL including also the chemical compound to be tested at the desired concentration, 1.25 μM of SAM//[methyl-^3H] SAM (3TBq/mmol) mix in a ratio of 3:1 and 0.3 μM of biotinylated DNA duplex. DNMT1, as “maintenance” methyltransferase, requires hemimethylated DNA for the reaction. After 2 h incubation at 37 °C, 8 μL of the reaction’s solution is transferred into a streptavidin 96-well scintillant coated Flashplate^TM containing 190 μL of […] in 50 mM Tris-HCl (pH 7.4). The Flashplate^TM is then agitated at room temperature for 1 h and washed. The plate is read with TopCount (PerkinElmer, Villebon-sur-Yvette, France). The greater the DNMT1 inhibition, the lower will be the scintillation signal correlated to the incorporation of the tritiated methyl groups. In this assay, the negative and positive controls were defined as wells without enzyme and wells without any compound but just DMSO, respectively.

[3] = tested on: HCT116 cells; test: MTT proliferation assay HCT116; format: cell-based, human; conditions: 24 and 48 h; MC3353 from 0.5 μM after 48 h; DAC at 10 μM
Procedure: (§1) The MTT [3-(4,5-dimethylthiazol-2-yl)-2,5-diphenyltetrazolium bromide] (Sigma-Aldrich, Milan, Italy) assay was used to determine the proliferation of HCT116 clone and DKO HCT116 cells after treatment with MC3353, 5-AZA, and DAC. 5 × 10^4 cells/well for both cell lines were plated in 24-well plate and treated, in duplicate, with compounds at several concentrations for 24 and 48 h of induction. After treatments, MTT solution was added for 3 h at 0.5 mg/mL, the purple formazan crystals were dissolved in DMSO (Sigma-Aldrich, Milan, Italy), and the absorbance was read at a wavelength of 570 nm with reader TECAN M-200.

[4] = tested on: methylated UCHL1 promoter EGFP reporter in HCT116 cells; test: UCHL1 promoter demethylation assay (EGFP expression, FACS) in HCT116; format: cell-based, human; conditions: 5 μM, 5 days, HCT116 with methylated pUCHL1 vector
Procedure: Human colon cancer HCT116 (ATCC, VA, USA) cells were propagated in McCoy’s 5A medium (Euroclone, Milan, Italy) with 10% fetal bovine serum (FBS; Euroclone), 2 mM L-glutamine (Euroclone), and antibiotics (100 U/mL penicillin, 100 µg/mL streptomycin) (Euroclone). For the treatments with MC3353, 5-AZA, and DAC as positive controls, 2 × 10^4 cells were seeded in 6-well plates in triplicate. Cells were treated every 2 days, and the medium was changed. On day 5, cells were observed under a fluorescent microscope. The nuclei were counterstained with DAPI (10 μg/mL, Invitrogen, Tournai, Belgium).
Fluorescence of EGFP and DAPI in living cells was analyzed by Cytation™ 5 Cell Imaging Multi-Mode Reader (BioTeK, Milan, Italy).
Before the transfection, the pUMLIEP vector was linearized by with ClaI restriction enzyme (New England Biolabs, Milan, Italy) and then it was methylated by SssI-methylase (New England Biolabs, Milan, Italy) for 60 min. The methylated vector was transfected into HCT116 cells using Lipofectamine™2000 (Invitrogen, Monza, Italy) and Opti-MEM® (Gibco, Monza, Italy), and stably introduced clones were selected with puromycin (1.0 μg/mL, Sigma-Aldrich, Milan, Italy). The detailed protocol for the generation of cells highly responsive to DNA demethylating agents is described in [27].
Next, the demethylating activity of MC3353 was evaluated in cells transfected with luciferase and EGFP reporter genes driven by the UCHL1 promoter. The UCHL1 promoter is silenced by methylation in human colon cancer and can be demethylated by specific treatments, inducing expression of Metridia luciferase and EGFP reporter genes. In particular, the pUCHL1 vector, after methylation, was transfected into HCT116 colon cancer cells, and the stable clone was obtained by puromycin selection. Afterwards, cells were treated with 5-AZA (5 μM), with DAC (5 μM), or with MC3353 (0.1 μM) for 5 days. Such a low MC3353 dose was used because of its cytotoxicity at higher concentrations in long treatments.

[5] = tested on: MMP2 mRNA in HCT116 cells; test: qPCR of MMP2 in HCT116; format: cell-based, human; conditions: MC3353 0.1 and 1 μM 24 h; 5-AZA, DAC 5 days, also at 0.1 to 1 μM
Text: (§2) RNAs were extracted by ReliaPrep™ RNA Tissue Miniprep (Promega, Madison, WI, USA) and reverse transcribed with PrimeScript RT Master Mix (Takara, Kusatsu, Shiga, Japan). cDNAs were amplified by a qPCR reaction using GoTaq qPCR Master Mix (Promega) and analyzed with the oligonucleotide pairs specific for the target genes. Relative amounts, determined with the 2^(−ΔCt) method, were normalized with respect to the human housekeeping gene L32. The primers used are as follows: L32 (forward: 5′-[…]-3′, reverse: 5′-[…]-3′), E-cadherin (forward: 5′-[…]-3′, reverse: 5′-[…]-3′), and MMP2 (forward: 5′-[…]-3′, reverse: 5′-[…]-3′).
(§3) Prompted by these findings, we investigated the ability of MC3353 to modulate EMT pathway, using 5-AZA and DAC as reference drugs. […] The levels of mRNA transcripts of E-cadherin and matrix metalloproteinase-2 (MMP2) were determined. E-cadherin is involved in the maintenance of the epithelial identity and in the control of tumor invasiveness, whereas MMP2, through degradation of type IV collagen, the most abundant component of the basement membrane, controls an essential step for metastatic progression of most cancers as well as for induction of angiogenesis.

[6] = tested on: double DNMT knockout (DKO) HCT116 cells; test: MTT proliferation assay DKO HCT116; format: cell-based, human; conditions: 24 and 48 h; MC3353 at 0.5 μM after 48 h; DAC, 5-AZA up to highest dose
Procedure: DKO HCT116 (ATCC, VA, USA) cells were propagated in Dulbecco’s modified Eagle medium (DMEM) (Euroclone, Milan, Italy) with 10% fetal bovine serum (FBS; Euroclone, Milan, Italy), 2 mM L-glutamine (Euroclone, Milan, Italy) and antibiotics (100 U/mL penicillin, 100 µg/mL streptomycin) (Euroclone, Milan, Italy).
as §1

[7] = tested on: MMP2 mRNA in PC-3 cells; test: qPCR of MMP2 in PC-3; format: cell-based, human; conditions: MC3353 0.1 and 1 μM 24 h; 5-AZA, DAC 5 days, also at 0.1 to 1 μM
Text: as §2, §3

[8] = tested on: E-cadherin mRNA in HCT116 cells; test: qPCR of E-cadherin in HCT116; format: cell-based, human; conditions: MC3353 0.1 μM 24 h; 5-AZA, DAC every 2 days for 5 days at 0.1, 1, 5 μM
Text: as §2, §3

[9] = tested on: E-cadherin mRNA in PC-3 cells; test: qPCR of E-cadherin in PC-3; format: cell-based, human; conditions: MC3353 24 h; 5-AZA, DAC 5 days, effect from 1 to 5 μM
Text: as §2, §3

T1 sequence (Q9Y6K1 634-912 limits assumed): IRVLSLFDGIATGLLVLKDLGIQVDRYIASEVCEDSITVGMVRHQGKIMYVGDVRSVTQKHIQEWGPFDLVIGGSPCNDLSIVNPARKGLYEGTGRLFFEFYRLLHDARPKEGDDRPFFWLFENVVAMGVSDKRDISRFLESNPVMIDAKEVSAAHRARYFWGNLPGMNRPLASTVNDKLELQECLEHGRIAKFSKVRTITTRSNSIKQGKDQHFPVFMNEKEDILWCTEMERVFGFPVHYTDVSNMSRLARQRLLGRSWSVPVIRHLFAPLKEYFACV

EC50 [1] [µM] | EC50 [2] [µM] | SMILES | effect on HCT116 proliferation (MTT) [3] | EGFP gene expression induction (FACS) [4] [%] | MMP2 mRNA expression, HCT116 [5] | effect on DKO HCT116 proliferation (MTT) [6] | MMP2 mRNA expression, PC-3 [7] | E-cadherin mRNA expression, HCT116 [8] | E-cadherin mRNA expression, PC-3 [9]
> 500 | 390 ± 50 | O=C(O)C(Cc1c[nH]c2ccccc12)N1C(=O)c2ccccc2C1=O (stereo not drawn) [RG-108, reference compound] | – | – | – | – | – | – | –
– | – | Nc1ncn([C@@H]2O[C@H](CO)[C@@H](O)[C@H]2O)c(=O)n1 [Compound 5-AZA, 5-azacytidine] | negligible effect | 38.5 | increased MMP2 level | weak effect | increased MMP2 level | able to induce E-cadherin expression | able to induce E-cadherin expression
